Source: publication PMC8994274, “A proteolysis-targeting chimera molecule selectively degrades ENL and inhibits malignant gene expression and tumor growth” (Journal of Hematology & Oncology, 2022)
“Also recorded” adds a separate entry of the source.

Columns and labels:
[1] = In vivo toxicity in C57BL/6 mice; conditions: 30 mg/kg/day for 13 days
Description: (§1) In vivo antitumor activity of compound 1 was evaluated in a commonly used mouse model of Molm-13 leukemia. First, in vivo toxicity was assessed in C57BL/6 mice. […] Next, 10^6 Molm-13 cells were injected subcutaneously into NOD-SCID mice, which developed palpable tumors in ~ 1 week and grew rapidly.

Molm-13 leukemia = test: Subcutaneous Molm-13 leukemia xenograft in NOD-SCID mice; type: in vivo
Description: as §1
All of the mouse studies were conducted in strict compliance with an […] protocol. NOD-SCID mice (6–8 weeks old, from Jackson lab) were obtained and maintained under specific pathogen-free conditions. 10^6 Molm13 cells in medical grade saline were inoculated subcutaneously, and palpable tumors (2–3 mm in diameter) were developed in ~ 1 week. Mice were treated with compound 1 (30 mg/kg/day for 13 days) in saline (0.1 mL) administered intraperitoneally. Tumors were measured every day and estimated by using the formula a × b^2/2.

MV4;11 cells = test: Antiproliferation assay (XTT), MV4;11; conditions: Homo sapiens, MV4-11, 168 h, read-out: EC50 against proliferation of MV4;11 cells
Description: Proliferation inhibition assays for suspension blood cancer cells were performed using an XTT assay kit (Biotium), following our previous methods [22]. EC50 values were determined using Prism 5 and from at least three independent experiments.

Molm-13 cells [2] = test: Annexin V apoptosis assay in Molm-13 cells; type: cell-based; conditions: 7 days
Description: (§2) Treatment of Molm-13 cells with compound 1 for 7 days at 1 and 3 µM caused significant apoptosis of 22.7% and 67.6%, respectively (Fig. 6c and Additional file 1: Fig. S6).
(§3) For Annexin V apoptosis assay, 10^5 cells/mL were incubated with increasing concentrations of a compound for 7 days. Apoptosis was determined using the FITC Annexin V Apoptosis Detection Kit I (BD Bioscience) using the manufacturer’s protocol. For other FACS assays, cells were labeled with fluorochrome-conjugated monoclonal antibodies against human CD14 and CD11b (BD Biosciences) according to the manufacturer’s recommendation. Cells were analyzed using a FACS Calibur (BD Biosciences/Applied Biosystems), and data were processed using the program Flowjo (version7.6.5).

HoxA11 and HoxA13 = test: qPCR expression of HoxA11 and HoxA13 in mENL-transfected HEK293T cells; type: cell-based; conditions: 0.04 μg of the plasmid, 24 h incubation
Description: Next, we investigated how mENL degradation affect expression of HoxA11 and HoxA13 in this cell model.
5 × 10^5 HEK293T cells were transfected with mENL containing pcDNA3.1(+)-N-DYK plasmid using jetPRIME (Polyplus Transfection) following the manufacturer's protocol. Upon transfection for 4 h, the media were carefully removed and the cells incubated with fresh media containing the specified concentrations of compound 1 for 24 h before further analysis (using Western blot or qPCR as described above).

ENL YEATS = target: T1, ENL YEATS (Homo sapiens, UniProt Q03111)
T1 sequence (Q03111 1-138): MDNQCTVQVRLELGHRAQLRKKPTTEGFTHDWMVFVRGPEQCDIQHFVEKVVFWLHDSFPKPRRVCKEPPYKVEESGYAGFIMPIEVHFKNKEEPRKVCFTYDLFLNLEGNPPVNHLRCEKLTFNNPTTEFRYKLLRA
Description: cDNA for human ENL YEATS domain (1–138) was synthesized (by Genscript) and cloned into pET-28a vector.
(§4) AlphaScreen binding assay was developed using Perkin-Elmer AlphaScreen Histidine (Nickel Chelate) Detection Kit, following a reported protocol [39]. Data were imported into Prism (version 5.0), and IC50 values from 3 independent experiments with standard deviation were obtained by using a standard dose–response curve fitting.

Molm-13 cells [3] = test: Cell differentiation (CD14, CD11b, FACS) in Molm-13 cells; type: cell-based, human; conditions: 3 μM for 5 days
Description: as §2, §3

AF9 YEATS = target: T2, AF9 YEATS (Homo sapiens, UniProt P42568); test: ALPHA assay, inhibition of the AF9 YEATS-H3K27ac interaction
T2 sequence (P42568 1-138 limits assumed): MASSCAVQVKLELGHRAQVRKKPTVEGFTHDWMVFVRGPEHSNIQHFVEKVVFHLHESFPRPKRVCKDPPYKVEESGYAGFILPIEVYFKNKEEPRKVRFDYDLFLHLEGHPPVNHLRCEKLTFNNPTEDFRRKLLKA
Description: as §4

Compound: C[C@H]1CCCN1Cc1nc2cc(NC(=O)c3ccc4c(cnn4CCCCCCCCNc4cccc5c4C(=O)N(C4CCC(=O)NC4=O)C5=O)c3)ccc2[nH]1 (some centres unmarked) [Compound 1]
- Body weight [1]: did not cause significant weight losses
- Hematopoiesis and overt toxicities [1]: did not inhibit normal hematopoiesis or cause other overt toxicities
- Blood cell counts versus control ([1]; blood test on day-14, 30 mg/kg/day): no significant changes; also recorded: no significant differences
- Body weight (Molm-13 leukemia; 30 mg/kg/day for Day 3–15): did not cause significant weight losses
- Tumor growth (Molm-13 leukemia; 30 mg/kg/day for Day 3–15, intraperitoneally): significantly inhibited tumor growth
- Animal survival (Molm-13 leukemia; 30 mg/kg/day for Day 3–15, intraperitoneally, p < 0.01, 30 mg/kg/day): prolonged animal survivals
- EC50 (MV4;11 cells): 570 nM
- Apoptosis (Molm-13 cells [2]; 0.5 μM): ≤ 5%
- Apoptosis (Molm-13 cells [2]; 1 µM): 22.7%
- Apoptosis (Molm-13 cells [2]; 3 µM): 67.6%
- Overexpression of HoxA11 and HoxA13 (HoxA11 and HoxA13): significantly inhibited overexpression
- IC50 (ENL YEATS): 170 nM
- Cell differentiation (cells with high levels of CD14 and CD11b) (Molm-13 cells [3]): induced cell differentiation
- IC50 (AF9 YEATS): 750 ± 15 nM
